Results on 14 molecules are retold here after PubChem BioAssay (NCI).

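Five compound concentrations were applied to cells in 96-well plates for 48 hours; endpoints were derived by simple linear interpolation of the resulting dose-response curve. Here, GI50 denotes the concentration required for 50% inhibition of growth. Definition used: TGI = concentration required for complete inhibition of growth.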

Among the test systems are A498 renal; COLO 205 colon; HL-60(TB) leukemia; NCI-H460 lung; NCI-H522 lung; SK-MEL-2 melanoma; SK-OV-3 ovarian; UO-31 renal; SK-MEL-5 melanoma; UACC-62 melanoma.
Assay in all cases: NCI-60 cell line screen, 48 h

`COc1cc(Cc2ccc3c(c2C#N)N(C)c2ccccc2S3)cc(OC)c1OC`: the TGI with A498 renal, in the test on COLO 205 colon, with HL-60(TB) leukemia, with NCI-H460 lung, in the test on NCI-H522 lung and in the test with SK-MEL-2 melanoma was over 100 µM in each case. Also, the TGI in the test with SK-OV-3 ovarian and in the test on UO-31 renal was over 100 µM in each case.
As to `O=c1oc2c(ccc3c(O)cccc32)c2c1CCCC2`, the TGI in the test with A498 renal was 80.8 µM; in the test on COLO 205 colon, over 100 µM; with HL-60(TB) leukemia, over 100 µM; in the test on NCI-H460 lung, over 100 µM; with NCI-H522 lung, over 100 µM; with SK-MEL-2 melanoma, over 100 µM. Further, the TGI in the test on SK-MEL-5 melanoma was over 100 µM; with UACC-62 melanoma, 27.2 µM; in the test on UO-31 renal, over 100 µM.
As to `COc1cc(C2S/C(=C/c3ccccc3)C(=O)N2c2ccccc2Cl)cc(OC)c1OC` (centres undefined), the TGI with A498 renal was over 100 µM; in the test on COLO 205 colon, over 100 µM; with NCI-H522 lung, 39.2 µM; in the test with SK-MEL-2 melanoma, 39.7 µM; in the test with SK-MEL-5 melanoma, 75.1 µM; in the test with SK-OV-3 ovarian, over 100 µM. Besides, the TGI in the test on UACC-62 melanoma and in the test with UO-31 renal was over 100 µM each time.
Regarding `COc1cc2nc(N3CCC[C@@H](NC4=CC(=O)c5ccccc5C4=O)C3)nc(N)c2cc1OC`, the GI50 is 18.5 µM with A498 renal; 1.93 µM with COLO 205 colon; 1.96 µM with HL-60(TB) leukemia; 2.1 µM in the test with NCI-H460 lung; 1.98 µM in the test with NCI-H522 lung; 1.77 µM in the test on SK-MEL-5 melanoma. Also, the GI50 in the test on SK-OV-3 ovarian was 2.03 µM; in the test on UACC-62 melanoma, 2.01 µM; with UO-31 renal, 1.62 µM. The TGI turned out to be 40.9 µM in the test with A498 renal; 3.55 µM in the test with COLO 205 colon; 4.05 µM in the test on HL-60(TB) leukemia; 4.36 µM with NCI-H460 lung; 4.31 µM in the test on NCI-H522 lung; 3.44 µM in the test with SK-MEL-5 melanoma. The TGI in the test with SK-OV-3 ovarian turned out to be 4.08 µM; with UACC-62 melanoma, 4.25 µM; with UO-31 renal, 3.25 µM.
Take `CCOC(=O)/C(=N/Nc1ccc(Cl)cc1)N1C(=S)C=C(C)NN(C)C1=S`: the TGI in the test on COLO 205 colon is over 100 µM; with HL-60(TB) leukemia, over 100 µM; in the test with NCI-H460 lung it was over 100 µM; with NCI-H522 lung, 50.2 µM; with SK-MEL-2 melanoma, over 100 µM; with SK-MEL-5 melanoma, over 100 µM. In addition, the TGI is over 100 µM with SK-OV-3 ovarian, 90.6 µM in the test with UACC-62 melanoma and over 100 µM in the test on UO-31 renal.
Turning to `Cc1nc(N(CCO)CCO)c2sc(=S)n(-c3ccccc3)c2n1`, the TGI with A498 renal, in the test with COLO 205 colon, with HL-60(TB) leukemia, with NCI-H460 lung, with NCI-H522 lung and with SK-MEL-2 melanoma was over 100 µM in each case. In addition, the TGI in the test with SK-MEL-5 melanoma, with SK-OV-3 ovarian, in the test on UACC-62 melanoma and in the test on UO-31 renal was over 100 µM throughout.
Consider `Cc1ccc(S(=O)(=O)Nc2cc(Sc3ccccc3)c(O)c3ccccc23)cc1`, for which the GI50 in the test on A498 renal is 13.1 µM; in the test on COLO 205 colon, 19.5 µM; with HL-60(TB) leukemia, 1.57 µM; in the test with NCI-H460 lung it was 17.6 µM; with NCI-H522 lung it was 13.1 µM; in the test with SK-MEL-2 melanoma, 3.73 µM. Also, the GI50 with SK-MEL-5 melanoma was 3.57 µM; in the test on SK-OV-3 ovarian it was 15.6 µM; in the test on UACC-62 melanoma it was 2.41 µM; in the test with UO-31 renal, 2.88 µM. Further, the TGI was 28.8 µM in the test with A498 renal; 42.4 µM in the test on COLO 205 colon; 4.13 µM in the test with HL-60(TB) leukemia; 34.5 µM in the test with NCI-H460 lung; 27.6 µM with NCI-H522 lung; 16 µM in the test with SK-MEL-2 melanoma. In addition, the TGI in the test with SK-MEL-5 melanoma was 13.1 µM; in the test with SK-OV-3 ovarian, 29.8 µM; in the test with UACC-62 melanoma, 6.72 µM; with UO-31 renal, 10.9 µM.
Turning to `C/C(=N\NC(=S)Nc1ccc(Cl)cc1)c1nc2ncccc2[nH]1`, the TGI was 20.2 µM in the test on A498 renal; 17.5 µM with COLO 205 colon; over 100 µM in the test on HL-60(TB) leukemia; 4.14 µM in the test on NCI-H460 lung; 20.2 µM in the test with NCI-H522 lung; 22.5 µM with SK-MEL-2 melanoma. The TGI in the test on SK-MEL-5 melanoma came out at 6.5 µM; with SK-OV-3 ovarian it was 60.8 µM; with UACC-62 melanoma, 12.8 µM; in the test with UO-31 renal it was 5.13 µM.
On to `BrC1=CN2C[n+]3cc(Br)c4ccccc4c3N=C2c2ccccc21`, for which the TGI in the test with A498 renal is 70.9 µM; in the test on COLO 205 colon, 23.1 µM; with HL-60(TB) leukemia it was 58.5 µM; in the test with NCI-H460 lung, 32.9 µM; in the test on NCI-H522 lung it was 32.2 µM; in the test with SK-MEL-2 melanoma, 22.3 µM. Also, the TGI was 12.8 µM in the test with SK-MEL-5 melanoma, 51.8 µM in the test with SK-OV-3 ovarian, 20.9 µM with UACC-62 melanoma and over 100 µM in the test on UO-31 renal.
Regarding `COC(=O)C1=C(O)C(C(=O)OC)[C@@]2(O)[C@@H](C(=O)OC)CC[C@@H]1[C@@H]2C(=O)OC` (some centres undefined), the TGI was 55.4 µM in the test on A498 renal; 76.6 µM in the test with HL-60(TB) leukemia; 35.9 µM in the test on NCI-H460 lung; 52.4 µM with NCI-H522 lung; 49.3 µM in the test on SK-MEL-2 melanoma; 34.6 µM in the test on SK-OV-3 ovarian. Also, the TGI in the test with UACC-62 melanoma and in the test with UO-31 renal was over 100 µM throughout.
For `CN(CCO)/N=N/c1nc[nH]c1C(N)=O`, the TGI in the test with A498 renal, with COLO 205 colon, with HL-60(TB) leukemia, with NCI-H460 lung, in the test on NCI-H522 lung and in the test on SK-MEL-2 melanoma was over 100 µM throughout. In addition, the TGI in the test with SK-MEL-5 melanoma, in the test with SK-OV-3 ovarian and in the test on UACC-62 melanoma was over 100 µM throughout.
As for `O=C(O)CN=c1c2ccccc2n(O)c2ccccc12`, the TGI with A498 renal is over 100 µM; in the test with COLO 205 colon, over 100 µM; with HL-60(TB) leukemia, 43 µM; in the test on NCI-H460 lung, over 100 µM; with NCI-H522 lung, over 100 µM; with SK-MEL-2 melanoma, over 100 µM. The TGI with SK-MEL-5 melanoma, with SK-OV-3 ovarian, with UACC-62 melanoma and in the test on UO-31 renal was over 100 µM in each case.
Regarding `CCOC(=O)C(=O)Nc1cccc(C)c1C`, the TGI in the test on A498 renal, in the test on COLO 205 colon, with HL-60(TB) leukemia, with NCI-H460 lung, in the test on NCI-H522 lung and with SK-MEL-2 melanoma was over 100 µM in each case. The TGI in the test on SK-MEL-5 melanoma, in the test on SK-OV-3 ovarian, with UACC-62 melanoma and in the test with UO-31 renal was over 100 µM throughout.
Turning to `C/C([O-])=C(/c1nc(-c2ccc([N+](=O)[O-])o2)no1)[n+]1cc(C)ccc1C`, the TGI in the test with A498 renal was found to be 33.8 µM; in the test with COLO 205 colon, 15 µM; in the test on HL-60(TB) leukemia, 31.6 µM; with NCI-H460 lung it was 17.5 µM; with NCI-H522 lung, 14.4 µM; in the test with SK-MEL-2 melanoma, 19.7 µM. Further, the TGI with SK-MEL-5 melanoma is 23.4 µM; in the test on SK-OV-3 ovarian, over 79.3 µM; in the test on UACC-62 melanoma, 21.3 µM; with UO-31 renal it was 40 µM.
